Laboratory results from patent CN1202821A, “用于从面颊释放药物的组合物和方法” (Theratech Inc, priority 1995, dated 1998).
Values joined by “and” are separate entries in the source; they are usually repeats but may differ in a detail not shown here. Identical values can stand only once. Each block holds one compound with its values, some of them ahead of it.

Key:
[1] = Double-blind, placebo-controlled crossover study of buccal GLP-1(7-36) amide bilayer tablet: blood glucose, plasma insulin, plasma glucagon; format: in vivo, human; settings: 400 μg buccal bilayer tablet, healthy volunteers
[2] = buccal, dose 119 nmol
[3] = Buccal delivery of salmon calcitonin from bilayer tablets in dogs (Table 3); format: in vivo, dog; settings: individual dogs, 2 tablets
[4] = Dog buccal mucosa model: insulin bilayer tablet, blood glucose; format: in vivo; settings: mean of 4 dogs, 1 buccal tablet of 0.375 inch, 5 U/kg

Compound: CC[C@H](C)[C@H](NC(=O)[C@H](Cc1ccccc1)NC(=O)[C@H](CCC(=O)O)NC(=O)[C@H](CCCCN)NC(=O)[C@H](C)NC(=O)[C@H](C)NC(=O)[C@H](CCC(N)=O)NC(=O)CNC(=O)[C@H](CCC(=O)O)NC(=O)[C@H](CC(C)C)NC(=O)[C@H](Cc1ccc(O)cc1)NC(=O)[C@H](CO)NC(=O)[C@H](CO)NC(=O)[C@@H](NC(=O)[C@H](CC(=O)O)NC(=O)[C@H](CO)NC(=O)[C@@H](NC(=O)[C@H](Cc1ccccc1)NC(=O)[C@@H](NC(=O)CNC(=O)[C@H](CCC(=O)O)NC(=O)[C@H](C)NC(=O)[C@@H](N)Cc1c[nH]cn1)[C@@H](C)O)[C@@H](C)O)C(C)C)C(=O)N[C@@H](C)C(=O)N[C@@H](Cc1c[nH]c2ccccc12)C(=O)N[C@@H](CC(C)C)C(=O)N[C@H](C(=O)N[C@@H](CCCCN)C(=O)NCC(=O)N[C@@H](CCCNC(=N)N)C(N)=O)C(C)C [GLP-1(7-36)酰胺]
- hypoglycaemia [1]: 没有导致低血糖症
- 生物利用度 (bioavailability) ([2]; individual subjects 901-907, listed as GLP-1(η-36)酰胺): 8.04 % and 6.40 % and 10.01 %
- 生物利用度 (bioavailability), mean ([2]; mean (平均) of subjects): 7.08 %

- ng吸收 (ng absorbed) ([3]; 0.71 cm2): 6,535 ng and 23,379 ng
Compound: CC(C)C[C@H](NC(=O)[C@H](CCCCN)NC(=O)CNC(=O)[C@H](CC(C)C)NC(=O)[C@@H](NC(=O)[C@@H]1CSSC[C@H](N)C(=O)N[C@@H](CO)C(=O)N[C@@H](CC(N)=O)C(=O)N[C@@H](CC(C)C)C(=O)N[C@@H](CO)C(=O)N[C@@H]([C@@H](C)O)C(=O)N1)C(C)C)C(=O)N[C@@H](CO)C(=O)N[C@@H](CCC(N)=O)C(=O)N[C@@H](CCC(=O)O)C(=O)N[C@@H](CC(C)C)C(=O)N[C@@H](Cc1c[nH]cn1)C(=O)N[C@@H](CCCCN)C(=O)N[C@@H](CC(C)C)C(=O)N[C@@H](CCC(N)=O)C(=O)N[C@H](C(=O)N[C@@H](Cc1ccc(O)cc1)C(=O)N1CCC[C@H]1C(=O)N[C@@H](CCCNC(=N)N)C(=O)N[C@H](C(=O)N[C@@H](CC(N)=O)C(=O)N[C@H](C(=O)NCC(=O)N[C@@H](CO)C(=O)NCC(=O)N[C@H](C(=O)N1CCC[C@H]1C(N)=O)[C@@H](C)O)[C@@H](C)O)[C@@H](C)O)[C@@H](C)O [鲑鱼降钙素]
- ng吸收 (ng absorbed) ([3]; 1.27 cm2): 72,958 ng and 16,461 ng and 20,989 ng and 17,614 ng

Compound: 胰岛素: human insulin in the buccal bilayer tablet of Example 6
- control of blood glucose concentration by buccal delivery [4]: 有效的
